Legend:
[1] = target: T1, Lp-PLA2 (rabbit serum as the source of enzyme) (Oryctolagus cuniculus, UniProt G1SE06); assay: In vitro inhibitory activity on Lp-PLA2, rabbit serum as the source of enzyme (2-thio-PAF/DTNB); assay type: biochemical; conditions: read-out: Inhibitory ratio, % on Lp-PLA2 (rabbit serum as the source of enzyme); for inhibition at 0.01 µM: 10 nM compound, — = no inhibitory activity; for inhibition at 0.1 µM: 100 nM compound; for inhibition at 1 µM: 1 μM compound
T1 construct: Rabbit Serum as the Source of Enzyme; from tissue; host or cells: rabbit serum
T1 sequence (G1SE06 22-423): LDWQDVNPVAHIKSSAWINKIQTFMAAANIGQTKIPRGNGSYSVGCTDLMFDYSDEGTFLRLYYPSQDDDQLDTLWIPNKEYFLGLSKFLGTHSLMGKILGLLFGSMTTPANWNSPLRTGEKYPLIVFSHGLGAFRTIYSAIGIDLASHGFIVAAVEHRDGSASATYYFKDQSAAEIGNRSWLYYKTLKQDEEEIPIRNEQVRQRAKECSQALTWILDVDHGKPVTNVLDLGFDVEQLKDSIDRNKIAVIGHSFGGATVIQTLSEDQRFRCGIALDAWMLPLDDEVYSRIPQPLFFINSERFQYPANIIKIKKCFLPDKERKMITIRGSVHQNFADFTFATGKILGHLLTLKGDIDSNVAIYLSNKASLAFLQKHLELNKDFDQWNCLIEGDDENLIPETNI
Protocol: (§1) 0.1M Tris-HCl, 1 mM EGTA, PH 7.2
(§2) Anhydrous ethanol was used as solvent to make a 25 mg/ml mother liquor. The solution was aliquoted, stored at −80° C. and diluted 900 times before use (about 50 μM of concentration)
(§3) 3) DTNB (5,5′-dithio-bis-(2-nitrobenzoic acid), Sigma, Lot D8130)
(§4) The solution was prepared just before use.
(§5) 4) Compound was dissolved in DMSO to a suitable concentration.
(§6) Lp-PLA2 activity was determined by using 2-thio-PAF as substrate. The thiol group produced upon the hydrolysis of 2-thio-PAF can react with DTNB to generate a yellow substance. The optical density at 414 nm can be detected to reflect Lp-PLA2 activity.
1.1 Determination of the Inhibitory Activity of the Compounds on Lp-PLA2 (Rabbit Serum as the Source of Enzyme) (In Vitro)
1) The corresponding reagents were added according to Table 1 and mixed uniformly by shaking.
(§7) 2) 10 μL of DTNB was added to each well.
(§8) 3) 150 μL of 2-thio-PAF was added to each well and shaken for 15 s on a microplate reader to mix the liquid in the well uniformly.

[2] = target: T2, Lp-PLA2 (human recombinant enzyme as the source of enzyme) (Homo sapiens, UniProt Q13093); assay: In vitro inhibitory activity on Lp-PLA2, human recombinant enzyme (2-thio-PAF/DTNB); assay type: biochemical; conditions: read-out: inhibitory ratio, % on Lp-PLA2 (human recombinant enzyme as the source of enzyme); for inhibition at 0.01 µM: 10 nM compound; for inhibition at 0.1 µM: 100 nM compound
T2 sequence (Q13093 22-441): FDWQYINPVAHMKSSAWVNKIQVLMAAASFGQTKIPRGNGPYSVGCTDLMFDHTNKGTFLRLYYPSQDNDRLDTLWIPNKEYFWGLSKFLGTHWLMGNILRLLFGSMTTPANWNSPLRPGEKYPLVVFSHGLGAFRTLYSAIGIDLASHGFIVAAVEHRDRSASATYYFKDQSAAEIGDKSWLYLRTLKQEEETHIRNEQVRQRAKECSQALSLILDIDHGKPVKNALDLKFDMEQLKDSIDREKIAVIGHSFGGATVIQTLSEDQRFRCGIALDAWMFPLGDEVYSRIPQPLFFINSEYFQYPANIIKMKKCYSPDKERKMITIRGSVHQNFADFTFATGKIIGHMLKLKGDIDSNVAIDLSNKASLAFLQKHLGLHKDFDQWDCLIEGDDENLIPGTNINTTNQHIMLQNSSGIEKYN
Protocol: as §1, §2, §3, §4, §5, §6
1.2 Determination of the Inhibitory Activity of the Compounds on Lp-PLA2 (Human Recombinant Enzyme as the Source of Enzyme) (In Vitro)
1) The corresponding reagents were added according to Table 3 and mixed uniformly by shaking.
as §7, §8

[3] = system: Lp-PLA2 (rat serum as the source of enzyme); assay: In vitro inhibitory activity on Lp-PLA2, rat serum as the source of enzyme (2-thio-PAF/DTNB); assay type: biochemical; set-up: key: “—” indicates no inhibitory activity
Protocol: as §1, §2, §3, §4, §5, §6
1.3 Determination of the Inhibitory Activity of the Compounds on Lp-PLA2 (Rat Serum as the Source of Enzyme (In Vitro)
1) The corresponding reagents were added according to Table 5 and mixed uniformly by shaking.
as §7, §8

[4] = system: STZ-induced diabetic rats; assay: Retinal thickness of STZ-induced diabetic rats, long-term administration; assay type: in vivo, rat; conditions: 25 mg/kg/day oral, 4 weeks
From the text: Test compound: […] Positive control: Darapladib, dissolved in ultrapure water. […] All SD rats were preconditioned for 3-5 days. […] The diabetic model was established when the blood glucose of the rats was more than 10 mmol/L. […] The rats were administrated once a day. […] The eyeballs of the rats were removed, frozen and sectioned and the thickness of each slice was 8 μm. The slice was stained with conventional hematoxylin/eosin and photographed with a 400-fold optical microscope (Eclipse 80i, Nikon). The thickness of the retina was analyzed using the software Image-Pro plus 6.0. Five points were selected in each photo. Statistical analysis was performed with the EXCEL 2007 software. […] The experiment results were evaluated by Student T test.

[5] = system: spontaneous type 2 diabetes ZDF rats; assay: Long-term administration in spontaneous type 2 diabetes ZDF rats (blood glucose and other biochemical indexes); assay type: in vivo, rat
From the text: Positive control: metformin, produced by China-US Shanghai Squibb Pharmaceutical Co., Ltd.; dissolved in ultra-pure water.
Varieties: ZDF rats, ZL rats; Grade: SPF grade; Age: 56-62 days; Gender: Male; Source: Beijing Weitong Lihua Experimental Animal Co., Ltd.
The kits for total cholesterol (TC), triglyceride (TG), high density lipoprotein cholesterol (HDL-C), low density lipoprotein cholesterol (LDL-C), blood glucose (GLU), aspartate transferase (AST), alanine aminotransferase (ALT), alkaline phosphatase (ALP), urea (BUN), creatinine (CREA) and the like were purchased from Shanghai Shenneng Desai Diagnostic Technology Co., Ltd. The reagents for glycosylated hemoglobin (HbAlc) assay was purchased from Trinity Biotech Corporation. Insulin ELISA Assay Kit was purchased from BertinPharma Corporation. Urine microalbumin (mALB) and other ELISA kits were purchased from Nanjing Jiancheng Bioengineering Institute.
Two ZDF rat groups were orally administered with the compound of example 11 and metformin, respectively. […] The dose of metformin was 300 mg/kg/day. Both were administered for a period of 6 weeks.
Thirty male ZDF rats (56˜62 days old) were fed with Purina #5008 feed (purchased from Nongbiao Purina Feed Co., Ltd.) and the other 6 ZL rats were fed with normal diet as normal control. After fed for 2 weeks, the empty body weights of the fasting rats (fasting for 10 h, free to drink water) were weighed. 0.3 mL blood was collected through tail vein and placed in EDTA anticoagulant tube for the determination of glycosylated hemoglobin (HbAlc). Another 0.5 mL blood was collected and centrifugated at 3000 rpm for 10 min to separate serum which then was determined by automatic biochemical analyzer Model 7020. The serum was separated and then blood glucose and blood lipid (GLU, TC, TG) and hepatorenal function (ALT, AST, ALP, BUN, CREA) were determined. The ZDF rats with blood glucose far from the mean value or having other abnormal indexes were removed and 18 ZDF rats with GLU close to the mean value were selected.
Rats in each group were given the corresponding drug or solvent by gavage through oral once a day in the morning for 6 continuous weeks. Another 6 ZL rats were taken as normal control group.
Every 2 weeks the rats were fasted but allowed free drinking for 10 h, the empty body weight was weighed and 0.5 mL blood was collected through the tail vein to determine the blood glucose levels. The levels of insulin, glycosylated hemoglobin and triglyceride were measured at the 4th week of administration and at the end of the administration. The levels of low density lipoprotein and high density lipoprotein were measured at the 6th week of administration. The urine samples were collected once before the end of the administration and 24 h (11:00 am to 11:00 am the next day) urine samples were collected to detect urinary albumin content in urine.
Statistical analysis was performed with EXCEL 2007 software.

[6] = 10 nM compound, — = no inhibitory activity
[7] = oral 25 then 10 mg/kg/day, 4 weeks after the administration
[8] = oral 25 then 10 mg/kg/day, 6 weeks after the administration

| SMILES | inhibition at 0.01 µM [1] [%] | inhibition at 0.1 µM [1] [%] | inhibition at 1 µM [1] [%] | inhibition at 0.01 µM [2] [%] | inhibition at 0.1 µM [2] [%] | inhibitory ratio, % on Lp-PLA2 (rat serum as the source of enzyme) [3, 6] | inhibitory ratio, % on Lp-PLA2 (rat serum as the source of enzyme) ([3]; 100 nM compound) [%] | retinal thickness compared with the model control group [4] | further results |
| --- | --- | --- | --- | --- | --- | --- | --- | --- | --- |
| Cn1c(N2CCOCC2)cc(OCCc2cc(F)c(Oc3ccc(Cl)c(C(F)(F)F)c3)c(F)c2)nc1=O [Example 5, 4-(4-(4-chloro-3-(trifluoromethyl)phenoxy)-3,5-difluorophenethyloxy)-1-methyl-6-morpholinopyrimidin-2(1H)-one] | 49.2 | 93.8 | 97.3 | ~90 | 100 | 18.21% | 73.23 |  |  |
| CN(C)c1cc(OCc2cc(F)c(Oc3ccc(Cl)c(C(F)(F)F)c3)c(F)c2)nc(=O)n1C [Example 11] |  |  |  |  |  |  |  | significantly decreased | blood glucose level compared with the model control group ([5]; oral 25 mg/kg/day first 4 days then 10 mg/kg/day, 2 weeks, 4 weeks and 6 weeks after administration): significantly decreased; insulin level compared with the model control group [5, 7]: significantly increased; triglyceride level compared with the model control group [5, 7]: significantly decreased; glycosylated hemoglobin levels compared to the model control group ([5]; oral 25 then 10 mg/kg/day, 4 weeks and 6 weeks after the administration): significantly reduced; insulin level compared with the model control group ([5]; oral 25 then 10 mg/kg/day, 6 weeks): remarkably increased; high-density lipoprotein level compared with the model control group [5, 8]: no significant change; level of low-density lipoprotein compared with the model control group [5, 8]: significantly reduced; urinary albumin levels in the urine compared with the model control group ([5]; oral 25 then 10 mg/kg/day, 24 h urine, 6 weeks after the administration): significantly reduced |
| Cn1c(N2CCC(F)(F)C2)cc(OCc2cc(F)c(Oc3ccc(Cl)c(C(F)(F)F)c3)c(F)c2)nc1=O [Example 16] | 13.2 | 77.4 | 96.4 | 55.3 | 92.4 | 6.84% | 50.35 |  |  |
| Cn1c(N2CCOCC2)cc(OCc2ccc(Oc3ccc(Cl)c(C(F)(F)F)c3)c(C#N)c2)nc1=O [Example 27, 2-(4-chloro-3-(trifluoromethyl)phenoxy)-5-((1-methyl-6-morpholinyl-2-oxo-1,2-dihydropyrimidin-4-oxy)methyl)benzonitrile] |  |  |  |  |  |  |  | significantly decreased |  |
| CCN(CC)CCN(Cc1ccc(-c2ccc(C(F)(F)F)cc2)cc1)C(=O)Cn1c(SCc2ccc(F)cc2)nc(=O)c2c1CCC2 [darapladib, reference compound] |  |  |  |  |  |  |  | significantly decreased |  |

The next lines start with results.

| inhibition at 0.01 µM [1] [%] | inhibition at 0.1 µM [1] [%] | inhibition at 1 µM [1] [%] | inhibition at 0.01 µM [2] [%] | inhibition at 0.1 µM [2] [%] | inhibitory ratio, % on Lp-PLA2 (rat serum as the source of enzyme) [3, 6] | inhibitory ratio, % on Lp-PLA2 (rat serum as the source of enzyme) ([3]; 100 nM compound) [%] | SMILES | retinal thickness compared with the model control group [4] | further results |
| --- | --- | --- | --- | --- | --- | --- | --- | --- | --- |
|  | 59.7 |  | 53.6 | 89.7 | — | 18.06 | Cn1c(-c2ccccc2)cc(OCc2cc(F)c(Oc3ccc(Cl)c(C(F)(F)F)c3)c(F)c2)nc1=O [Example 19, 4-((4-(4-chloro-3-(trifluoromethyl)phenoxy)-3,5-difluorobenzyl)oxy)-1-methyl-6-phenylpyrimidin-2(1H)-one] |  |  |
|  | 54.2 |  | 46.9 | 90.4 | — | 43.27 | COc1ccc(-c2cc(OCc3cc(F)c(Oc4ccc(Cl)c(C(F)(F)F)c4)c(F)c3)nc(=O)n2C)cc1 [Example 20, 4-((4-(4-chloro-3-(trifluoromethyl)phenoxy)-3,5-difluorobenzyl)oxy)-6-(4-methoxyphenyl)-1-methylpyrimidin-2(1H)-one] |  |  |
|  | 57.3 | 93.5 |  |  |  |  | Cn1c(N2CCOCC2)cc(OCc2cc(F)c(Oc3ccc(C(F)(F)F)nc3)c(F)c2)nc1=O [Example 26] |  |  |
| 22.6 | 83.5 | 97.1 |  |  |  |  | Cn1c(N2CCOCC2)cc(OCc2cc(F)c(Oc3ccnc(C(F)(F)F)c3)c(F)c2)nc1=O [Example 29] |  |  |
|  | 54.1 | 95.6 | 53.9 | 95.6 |  |  | CCn1c(N2CCOCC2)cc(OCc2cc(F)c(Oc3ccc(Cl)c(C(F)(F)F)c3)c(F)c2)nc1=O [Example 34, 4-(4-(4-chloro-3-(trifluoromethyl)phenoxy-3,5-difluorobenzyl)oxy)-1-ethyl-6-morpholinopyrimidin-2(1H)-one] |  |  |

Source: patent US10280146B2, “Pyrimidone compounds used as Lp-PLA2 inhibitors and pharmaceutical compositions thereof” (Shanghai Institute of Materia Medica, Chinese Academy of …, priority 2014, dated 2019)
